Laboratory results taken from PMC6980506, “Comparative pharmacokinetics and pharmacodynamics of the advanced Retinol-Binding Protein 4 antagonist in dog and cynomolgus monkey” (PLoS ONE, 2020).

Legend:
[1] = Metabolic stability in dog liver microsomes; assay type: in vitro ADME; conditions: male, beagle, pH 7.4, 1 mg/mL, read-out: Microsomal Stability (% Remaining at 30 min)
Experimental: (§1) All measurements were done in duplicate. Pooled mixed gender human donor microsomes, male beagle dog microsomes and male cynomolgus monkey were obtained from BioIVT (Baltimore, MD). […] A mixture containing 50 mM potassium phosphate buffer pH 7.4 and 1 mg/mL liver microsomes was pre-warmed for 10 min at 37°C in a shaking water bath, followed by the addition of test compound. Final DMSO concentration in the reaction mix was 0.1%. […] The final volume of the reaction mixture was 800 μL, containing 1 mg/mL liver microsomes, and 1 μM test compound. Aliquots (100 μL) of reaction mixtures were removed from the incubation plate at pre-defined timepoints and mixed with 150 μL of ice-cold acetonitrile, incubated on ice for 15 min, and samples were centrifuged (3,600 rpm, 10 min, 4°C) to precipitate protein. The supernatants were diluted 1:1 (v/v) with water containing the internal standard and subjected to the LC/MS analysis.

plasma RBP4 [2] = assay: Plasma RBP4 lowering (ELISA) in cynomolgus monkey; assay type: in vivo
Experimental: (§2) Pharmacokinetic studies were conducted in male beagle dogs and male cynomolgus monkeys at SRI International, Menlo Park, CA. General procedures for animal care and housing were in accordance with the National Research Council (NRC) Guide for the Care and Use of Laboratory Animals (1996) and the Animal Welfare Standards incorporated in 9 CFR Part 3, 1991 and complied with guidelines set forth by the ARVO Animal Statement for the Use of Animals in Ophthalmic and Vision Research. During the course of the PK experiments, cynomolgus monkeys were individually housed in stainless steel primary enclosures in an AAALAC-accredited facility. Animals were fed a commercial monkey chow, and supplemental food was provided (fresh fruits, vegetables, seeds, and nuts). Reverse osmosis-purified drinking water was available at all times. Cynomolgus monkeys were maintained on a 12:12 hour light:dark cycle at the 64–84°F temperature and 30–70% humidity. Monkeys had access to enrichment opportunities (grooming devices, foraging devices, activity panels and mirrors) and were provided auditory stimuli and human interaction enrichment throughout the study. Blood samples were collected by venipuncture of a peripheral vein. Animals were acclimated to the squeeze back mechanism in their home cage by repeated, short periods of restraint during general husbandry procedures for at least 2 weeks prior to dosing. Animal were not removed from their cages for collection, and no anesthesia/analgesic agents were used for blood collection. […] For PK experiments, beagle dogs were individually housed in enclosed run (≥ 4 ft x 6 ft). Dogs were exposed to their daily ration of food, Harlan Teklad 2025C Certified Global 25% Protein Dog Diet. Water was provided from the public water supply (municipal tap water) ad libitum. Dogs were maintained on a 12:12 hour light:dark cycle at the 72–73°F temperature and 40–71% humidity. Every effort was made to minimize, if not eliminate, pain and suffering in all animals in this study. No restraining devices were used in blood collecting procedures. Dogs were gentle hand-held to restrain by trained technicians with the dogs foreleg extended for sample collection of blood from cephalic vein. Animals were awake during blood sample collection with no anesthesia/analgesic agents used, and positive reinforcement by the technician was provided following collection. […] All dogs were released back to the colony after the study was completed. Male beagle dogs and male cynomolgus monkey received a single i.v. dose of a test compound at 0.5 mg kg^−1 (dog) and 1 mg kg^−1 (monkey) or a single p.o. dose of a test compound of at 2 mg kg^−1 (dog) and 5 mg kg^−1 (monkey). The number of animals that was used in PK experiments is 3 per study group. Intravenous administration vehicle was 3% DMA/45% PEG300/12% ethanol/40% sterile water; p.o. vehicle was 2% Tween 80 in 0.9% saline. Blood was collected from dogs and monkeys at pre-dose and at 5, 15 and 30 min, and 1, 2, 4, 6, 8, 12, 24, 36 and 48 h post-dose in the i.v. arms and at 15 and 30 min, and 1, 2, 4, 6, 8, 12, 24, 36 and 48 h post-dose in the p.o. arm. […] Following protein extraction with acetonitrile, compound concentrations in plasma were measured by LC-MS/MS. The plasma drug level data were analyzed using WinNonlin software package; Model 201 (for i.v. bolus administration);was used for the analysis of i.v. data, and Model 200 (for extravascular administration) was used for the analysis of the p.o. data. […]

plasma RBP4 [3] = assay: Plasma RBP4 lowering (ELISA) in beagle dog; assay type: in vivo
Experimental: as §2

[4] = Plasma protein binding by equilibrium dialysis, dog plasma; assay type: in vitro ADME; conditions: pH 7.4, average and standard deviation, read-out: %PPB, plasma protein binding (converted)
Experimental: In vitro ADME tests were conducted at AMRI, Albany, NY.

hERG channel = tested on: hERG channel; parameters: method as in PMID 26181715; conditions: cited from earlier work
[5] = parameters: method as in PMID 26181715; conditions: rat liver microsomes; cited from earlier work
[6] = tested on: cytochrome (CYP) P450 enzymes; parameters: method as in PMID 26181715; conditions: all standard CYP P450 enzymes; read-out: CYP inhibition IC50; cited from earlier work
[7] = Metabolic clearance in human hepatocytes; assay type: in vitro ADME; conditions: cryopreserved hepatocytes, read-out: Hepatocyte CLint (intrinsic clearance)
Experimental: All measurements were done in duplicate. Testosterone and 7-hydroxycoumarin were used as positive controls. Pooled cryopreserved human hepatocytes, cryopreserved male beagle dog hepatocytes, and cryopreserved male cynomolgus monkey hepatocytes were obtained from BioIVT (Baltimore, MD). Compound at 1 μM was incubated with 1 x 10^6 cells. Final DMSO concentration in the reaction mix was 0.1%. Aliquots (100 μL) of reaction mixtures were removed from the incubation plate at different timepoints and mixed with 150 μL of ice-cold acetonitrile. After incubation on ice for 15 min, the samples were centrifuged (3,600 rpm, 10 min, 4°C) to precipitate protein. The supernatants were diluted 1:1 (v/v) with water containing internal standards and subjected to the LC/MS analysis. Hepatic clearance was calculated using the well-stirred liver model

bisretinoid synthesis = tested on: bisretinoid synthesis; parameters: method as in PMID 29871924; conditions: Abca4-/- mouse model of Stargardt disease; cited from earlier work
PXR = tested on: PXR; parameters: method as in PMID 26181715; conditions: cited from earlier work
[8] = Metabolic stability in cynomolgus monkey liver microsomes; assay type: in vitro ADME; conditions: male, pH 7.4, Cyno liver microsomes, 1 mg/mL, read-out: Microsomal Stability (% Remaining at 30 min)
Experimental: as §1

remaining at 0.5 h, 1 μM [1]: 93%
fraction unbound at 4 h, 1 μM [4]: 0.003
hepatocyte CLint at 1 μM [7]: < 0.7 µL/min/1e6 cells
remaining at 0.5 h, 1 μM [8]: 95%
Compound: Cc1cc(C(=O)O)nc(N2C[C@H]3C[C@@H](c4ccccc4C(F)(F)F)C[C@H]3C2)n1 [BPN-14136]
plasma RBP4 reduction (plasma RBP4 [2]; single 1 mg kg^−1 i.v. dose): 84%
RBP4 reduction (plasma RBP4 [2]; single 5 mg kg^−1 oral dose, 24 h): 97%
RBP4 reduction (plasma RBP4 [2]; single 5 mg kg^−1 oral dose, 36 h): 94%
RBP4 reduction (plasma RBP4 [2]; single 5 mg kg^−1 oral dose, 48 h): 91%
maximum decrease in plasma RBP4 (plasma RBP4 [2]; single 5 mg kg^−1 oral dose, at 12 hours after dosing): 99%
plasma RBP4 lowering (plasma RBP4 [3]; single 0.5 mg kg^−1 i.v. dose): 50%
reduction of RBP4 (plasma RBP4 [3]; single 2 mg kg^−1 oral dose, 24 h): 53%
reduction of RBP4 (plasma RBP4 [3]; single 2 mg kg^−1 oral dose, 36 h): 42%
reduction of RBP4 (plasma RBP4 [3]; single 2 mg kg^−1 oral dose, 48 h): 39%
maximal plasma RBP4 reduction (plasma RBP4 [3]; single 2 mg kg^−1 oral dose, at 8 hours post-dosing): 60%
off-target activity at the hERG channel (hERG channel): no significant off-target activity
stability in liver microsomes, % remaining at 30 min [5]: > 90%
IC50 [6]: > 34 µM
bisretinoid synthesis (bisretinoid synthesis): significantly inhibited bisretinoid synthesis
PXR activation (PXR): no PXR activation
